Measurements reported in article PMC10913048, “Snapshots of the Reaction Coordinate of a Thermophilic 2′-Deoxyribonucleoside/ribonucleoside Transferase” (ACS Catalysis, 2024).
Values belong to the molecule of their own block, whether it stands above or below them.

Tests used:
[1] = biological target: T1, CtNDT (2′-deoxyribonucleoside/ribonucleoside transferase, dNDT) (Chroococcidiopsis thermalis, UniProt K9TVX3, E88A); experiment: stopped-flow tryptophan fluorescence; kon […] ^–[…] s^–[…], koff […] s^–[…]; type: binding; conditions: read-out: stopped-flow tryptophan fluorescence; kon 0.76 μM^-1 s^-1, koff 39.3 s^-1
T1 construct: gene Chro_1188

[2] = biological target: T2, CtNDT (2′-deoxyribonucleoside/ribonucleoside transferase, dNDT) (Chroococcidiopsis thermalis, UniProt K9TVX3); experiment: stopped-flow fluorescence ([…]′-deoxyribosylation […] s^–[…]); HPLC steady-state kinetics (kcat/KM); type: binding
T2 construct: gene Chro_1188
T2 sequence (K9TVX3 1-155): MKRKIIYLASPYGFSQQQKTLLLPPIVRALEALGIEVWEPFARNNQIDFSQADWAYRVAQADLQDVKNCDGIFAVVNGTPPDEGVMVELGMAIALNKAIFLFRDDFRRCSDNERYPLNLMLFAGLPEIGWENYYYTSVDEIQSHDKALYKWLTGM

[3] = biological target: T2, CtNDT (2′-deoxyribonucleoside/ribonucleoside transferase, dNDT); experiment: crystal structure of the covalent 2-difluoro-2-deoxyribosyl enzyme after cocrystallization; type: binding
[4] = biological target: T2, CtNDT (2′-deoxyribonucleoside/ribonucleoside transferase, dNDT); experiment: ITC; co-crystal structure; type: binding
[5] = biological target: T2, CtNDT (2′-deoxyribonucleoside/ribonucleoside transferase, dNDT); experiment: HPLC steady-state transglycosylation kinetics (kcat); type: biochemical
[6] = biological target: T2, CtNDT (2′-deoxyribonucleoside/ribonucleoside transferase, dNDT); experiment: ITC; stopped-flow fluorescence; type: binding
[7] = biological target: T3, CtNDT (2′-deoxyribonucleoside/ribonucleoside transferase, dNDT) (Chroococcidiopsis thermalis, UniProt K9TVX3, D62N); experiment: co-crystal structure; type: binding
T3 construct: gene Chro_1188

[8] = biological target: Chroococcidiopsis thermalis nucleoside 2'-deoxyribosyltransferase (CtNDT), wild type (Chroococcidiopsis thermalis PCC 7203) (UniProt K9TVX3); experiment: SEC; size exclusion of purified CtNDT in solution (Figure S1); conditions not shown
[9] = substrate: Nc1ncnc2c1ncn2[C@@H]1O[C@H](CO)[C@@H](O)[C@H]1O; experiment: crystal structure of ribosylated enzyme after cocrystallization; HPLC steady-state kinetics (KM); type: biochemical, Chroococcidiopsis thermalis; conditions: ribosyl covalent on catalytic glutamate E88; D62 near […]′-OH and […]′-OH
Source text: crystal structure of ribosylated enzyme after cocrystallization; HPLC steady-state kinetics (KM) on CtNDT (2′-deoxyribonucleoside/ribonucleoside transferase, dNDT) | determined the structure of a ribosylated enzyme intermediate by cocrystallization of wild-type CtNDT in the presence of Ado

Molecule: Nc1ncnc2c1ncn2[C@H]1C[C@H](O)[C@@H](CO)O1 [2′-deoxyadenosine]
koff [1]: 39.3 ± 0.7 s⁻¹ | stopped-flow fluorescence (2′-deoxyribosylation 532 s^-1); HPLC steady-state kin [2]: 50.5 ± 12.2 mM^–1 s^–1

Molecule: Nc1ccn([C@@H]2O[C@H](CO)[C@@H](O)C2(F)F)c(=O)n1 [Gemcitabine]
crystal structure of the covalent 2-difluoro-2-deoxyribosyl enzyme after cocryst [3]: structure of a 2-difluoro-2-deoxy-ribosylated CtNDT after cocrystallization with Gemcitabine

Molecule: O=c1[nH]cnc2c(CN3C[C@H](CO)[C@@H](O)C3)c[nH]c12 [DADme–immucillin-H]
Kd [4]: 9 ± 5 nM

HPLC steady-state transglycosylation kinetics (kcat) [5]: 6.9 ± 0.7 s^–1
Molecule: Nc1nc2c(ncn2[C@H]2C[C@H](O)[C@@H](CO)O2)c(=O)[nH]1 [2′-deoxyguanosine]

Molecule: O=c1[nH]cnc2c([C@@H]3N[C@H](CO)[C@@H](O)[C@H]3O)c[nH]c12 [immucillin-H]
Kd [6]: 78.2 ± 6.6 µM | co-crystal structure [7]: (b) CtNDTD62N bound to immucillin-H

stoichiometry N [8]: 4
Molecule: Chroococcidiopsis thermalis nucleoside 2'-deoxyribosyltransferase (CtNDT), wild type (from UniProt K9TVX3 1-155) (enzyme)

B1: CtNDT (2′-deoxyribonucleoside/ribonucleoside transferase, dNDT) (Chroococcidiopsis thermalis PCC 7203) (protein)
chain: T2 sequence (K9TVX3 1-155)
Km [9]: 0.25 ± 0.05 mM
